These results are taken from ChEMBL document CHEMBL1201862, “PubChem BioAssay data set” (2004).

The target of experiment [1] is Heat shock protein HSP 90-alpha (Homo sapiens, UniProt P07900). Nature of the experiment: Luminescence-based dose response biochemical high throughput screening assay for inhibitors of the Heat Shock Protein 90 (HSP90). [Related pubchem assays: 1831 (Summary AID.), 1846 (Confirmation screen.), 1789 (Primary screen.)].
The next experiment has as its system Vero. Briefly: host cell cytotoxicity of antiviral hits, dose response, cytotoxicity control for West Nile virus antiviral project, secondary assay (AID 1650). In kind it is functional. The settings on record: Chlorocebus sabaeus.
A short description of experiment [2]: P. falciparum Dd2 growth inhibitors, dose response, SYBR Green, cherry-picked samples (AID 1159567). Type of experiment: functional, cell-based.
The nature of experiment [3]: HepG2 cell cytotoxicity, dose response, cytotoxicity control, cherry-picked samples (AID 1159577). Type of experiment: functional, cell-based.
Experiment [4] is described as follows: ADAM10 protease inhibitors, dose response, selectivity assay for ADAM17 exosite inhibitor project, biochemical, FRET peptide substrate, recombinant human ADAM10 (AID 743259).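 Further: ADAM10 enzyme cleaving a FRET peptide substrate.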
For experiment [5], the target named is Disintegrin and metalloproteinase domain-containing protein 17 (Homo sapiens, UniProt P78536). Briefly: exosite inhibitors of ADAM17, dose response, biochemical (AID 743260).
Chain of Disintegrin and metalloproteinase domain-containing protein 17 (P78536 whole entry, the tested form may be a part): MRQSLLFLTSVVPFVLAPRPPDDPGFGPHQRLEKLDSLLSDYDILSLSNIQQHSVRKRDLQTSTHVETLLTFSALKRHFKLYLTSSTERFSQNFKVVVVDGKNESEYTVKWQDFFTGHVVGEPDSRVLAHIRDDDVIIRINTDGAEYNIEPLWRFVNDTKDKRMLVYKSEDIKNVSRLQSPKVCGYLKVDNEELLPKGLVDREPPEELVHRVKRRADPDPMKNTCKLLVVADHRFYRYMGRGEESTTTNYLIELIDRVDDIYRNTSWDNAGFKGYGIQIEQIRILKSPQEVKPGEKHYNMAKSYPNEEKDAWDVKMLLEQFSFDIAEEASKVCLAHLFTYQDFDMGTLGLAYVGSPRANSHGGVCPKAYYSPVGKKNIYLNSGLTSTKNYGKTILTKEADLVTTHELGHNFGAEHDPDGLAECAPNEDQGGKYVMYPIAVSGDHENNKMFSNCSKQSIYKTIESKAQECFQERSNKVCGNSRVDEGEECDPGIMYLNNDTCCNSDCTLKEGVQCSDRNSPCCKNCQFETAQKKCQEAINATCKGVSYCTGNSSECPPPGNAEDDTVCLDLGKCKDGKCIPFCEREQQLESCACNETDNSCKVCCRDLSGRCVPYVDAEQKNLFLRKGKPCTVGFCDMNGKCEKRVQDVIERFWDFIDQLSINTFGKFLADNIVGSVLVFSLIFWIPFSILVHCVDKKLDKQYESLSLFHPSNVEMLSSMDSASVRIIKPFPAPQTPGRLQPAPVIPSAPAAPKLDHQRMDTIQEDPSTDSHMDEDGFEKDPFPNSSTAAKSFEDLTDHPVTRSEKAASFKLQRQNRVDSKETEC
A further experiment addresses Ephrin type-A receptor 4 (Mus musculus, UniProt Q03137). Briefly: inhibitors of EphA4 binding to KYL peptide, primary screen, biochemical, colorimetric, mouse EphA4 (AID 689). Type of experiment: functional.
In experiment [6] the target is T1, Oxysterols receptor LXR-beta (Homo sapiens, UniProt P55055).
T1 sequence (P55055 whole entry): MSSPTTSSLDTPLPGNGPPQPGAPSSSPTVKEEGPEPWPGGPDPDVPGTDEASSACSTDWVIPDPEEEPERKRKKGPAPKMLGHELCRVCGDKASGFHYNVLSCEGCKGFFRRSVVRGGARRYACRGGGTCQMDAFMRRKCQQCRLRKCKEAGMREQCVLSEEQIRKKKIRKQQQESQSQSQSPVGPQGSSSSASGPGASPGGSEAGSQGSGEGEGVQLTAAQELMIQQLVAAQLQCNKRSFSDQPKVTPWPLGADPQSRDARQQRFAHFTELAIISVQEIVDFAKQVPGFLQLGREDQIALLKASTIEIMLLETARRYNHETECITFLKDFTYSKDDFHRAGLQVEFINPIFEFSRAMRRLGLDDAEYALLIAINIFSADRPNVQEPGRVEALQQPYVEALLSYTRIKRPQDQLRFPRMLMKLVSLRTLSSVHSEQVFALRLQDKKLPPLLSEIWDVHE
Briefly: LXR agonists, Gal4 luciferase reporter, dose response, counter-screen for ssDAF-12 agonist project, cell-based, luminescence, HEK293, S. stercoralis campaign (AID 720737). In kind it is functional. Particulars: read-out: IC50 (the source's name). A general note: In a reporter assay the amount or activity of a reporter protein is the signal.

Experiment [7] concerns the target T2, Zinc finger protein mex-5 (Caenorhabditis elegans, UniProt Q9XUB2).
T2 sequence (Q9XUB2 whole entry): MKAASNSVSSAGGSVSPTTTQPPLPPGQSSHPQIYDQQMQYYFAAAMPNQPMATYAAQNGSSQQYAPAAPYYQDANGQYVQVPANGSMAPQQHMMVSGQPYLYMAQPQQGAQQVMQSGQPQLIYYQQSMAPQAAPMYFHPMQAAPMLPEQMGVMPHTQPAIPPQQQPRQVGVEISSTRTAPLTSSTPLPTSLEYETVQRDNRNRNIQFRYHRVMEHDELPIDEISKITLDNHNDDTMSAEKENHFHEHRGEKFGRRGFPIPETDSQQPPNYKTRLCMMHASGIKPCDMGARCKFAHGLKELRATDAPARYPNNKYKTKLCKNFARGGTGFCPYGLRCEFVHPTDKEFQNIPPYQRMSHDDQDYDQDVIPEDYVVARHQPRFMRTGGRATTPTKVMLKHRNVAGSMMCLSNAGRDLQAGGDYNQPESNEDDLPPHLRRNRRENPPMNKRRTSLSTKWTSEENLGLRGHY
Briefly: MEX-5/TCR-2 RNA interaction inhibitors, dose response, biochemical, C. elegans, fluorescence polarization (AID 1960).

Experiment [8] is described as follows: Luminescence-based cell-based high throughput dose response assay to identify activators of the DAF-12 from the parasite S. stercoralis (ssDAF-12). In kind it is functional.
For experiment [9], the target named is T3, RNA-binding protein pos-1 (Caenorhabditis elegans, UniProt G5EF15).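 Further: purified POS-1 fused to maltose binding protein made in E. coli; potency of compounds blocking POS-1 binding to fluorescent RNA.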
T3 sequence (G5EF15 whole entry): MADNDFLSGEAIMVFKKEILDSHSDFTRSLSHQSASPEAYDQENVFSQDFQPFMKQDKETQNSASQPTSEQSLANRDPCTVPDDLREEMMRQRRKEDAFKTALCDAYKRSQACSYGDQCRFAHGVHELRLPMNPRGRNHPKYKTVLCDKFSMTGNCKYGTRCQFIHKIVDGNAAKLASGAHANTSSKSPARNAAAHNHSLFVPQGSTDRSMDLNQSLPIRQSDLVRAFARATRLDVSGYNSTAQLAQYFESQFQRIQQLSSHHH
Nature of the experiment: inhibitors of POS-1/mex-3 RNA binding, dose response, biochemical, fluorescence polarization (AID 1964). (Polarisation of emitted light reports the rotation of a fluorescent probe.)

The next experiment has as its target Genome polyprotein (dengue virus type 2, UniProt P29990). Briefly: Dengue-2 NS5 methyltransferase inhibitors, primary screen, biochemical, confirmation dose response (AID 588689). Type of experiment: functional.
The next experiment has as its target Protein Tat (Human immunodeficiency virus type 1 group M subtype B (isolate HXB2)(HIV-1), UniProt P04608). In kind it is functional.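 Further: tat binding to TAR RNA read out by fluorescence polarization.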
Experiment [10] deals with Bifunctional protein GlmU (Mycobacterium tuberculosis, UniProt P9WMN3). Nature of the experiment: Inhibitors of Mycobacterial Glucosamine-1-phosphate acetyl transferase (GlmU). Secondary screen. Also on record: species or system Mycobacterium tuberculosis H37Rv.
Chain of Bifunctional protein GlmU (P9WMN3 whole entry): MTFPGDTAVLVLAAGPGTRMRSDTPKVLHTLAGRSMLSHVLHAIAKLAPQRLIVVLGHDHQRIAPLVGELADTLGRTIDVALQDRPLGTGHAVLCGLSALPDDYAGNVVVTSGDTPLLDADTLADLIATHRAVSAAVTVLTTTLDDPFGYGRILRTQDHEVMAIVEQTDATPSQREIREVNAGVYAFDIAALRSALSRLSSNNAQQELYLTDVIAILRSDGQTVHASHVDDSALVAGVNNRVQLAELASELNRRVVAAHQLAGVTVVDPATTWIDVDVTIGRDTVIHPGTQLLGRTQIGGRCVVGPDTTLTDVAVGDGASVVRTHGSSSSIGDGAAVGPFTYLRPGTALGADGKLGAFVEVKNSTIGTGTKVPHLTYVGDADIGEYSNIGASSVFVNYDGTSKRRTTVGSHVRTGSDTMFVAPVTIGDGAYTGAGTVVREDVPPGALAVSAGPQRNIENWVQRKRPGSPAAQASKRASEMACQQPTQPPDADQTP

Each structure is given as a SMILES string. Active and inactive are the calls of the source.

Chain of Ephrin type-A receptor 4 (Q03137 whole entry): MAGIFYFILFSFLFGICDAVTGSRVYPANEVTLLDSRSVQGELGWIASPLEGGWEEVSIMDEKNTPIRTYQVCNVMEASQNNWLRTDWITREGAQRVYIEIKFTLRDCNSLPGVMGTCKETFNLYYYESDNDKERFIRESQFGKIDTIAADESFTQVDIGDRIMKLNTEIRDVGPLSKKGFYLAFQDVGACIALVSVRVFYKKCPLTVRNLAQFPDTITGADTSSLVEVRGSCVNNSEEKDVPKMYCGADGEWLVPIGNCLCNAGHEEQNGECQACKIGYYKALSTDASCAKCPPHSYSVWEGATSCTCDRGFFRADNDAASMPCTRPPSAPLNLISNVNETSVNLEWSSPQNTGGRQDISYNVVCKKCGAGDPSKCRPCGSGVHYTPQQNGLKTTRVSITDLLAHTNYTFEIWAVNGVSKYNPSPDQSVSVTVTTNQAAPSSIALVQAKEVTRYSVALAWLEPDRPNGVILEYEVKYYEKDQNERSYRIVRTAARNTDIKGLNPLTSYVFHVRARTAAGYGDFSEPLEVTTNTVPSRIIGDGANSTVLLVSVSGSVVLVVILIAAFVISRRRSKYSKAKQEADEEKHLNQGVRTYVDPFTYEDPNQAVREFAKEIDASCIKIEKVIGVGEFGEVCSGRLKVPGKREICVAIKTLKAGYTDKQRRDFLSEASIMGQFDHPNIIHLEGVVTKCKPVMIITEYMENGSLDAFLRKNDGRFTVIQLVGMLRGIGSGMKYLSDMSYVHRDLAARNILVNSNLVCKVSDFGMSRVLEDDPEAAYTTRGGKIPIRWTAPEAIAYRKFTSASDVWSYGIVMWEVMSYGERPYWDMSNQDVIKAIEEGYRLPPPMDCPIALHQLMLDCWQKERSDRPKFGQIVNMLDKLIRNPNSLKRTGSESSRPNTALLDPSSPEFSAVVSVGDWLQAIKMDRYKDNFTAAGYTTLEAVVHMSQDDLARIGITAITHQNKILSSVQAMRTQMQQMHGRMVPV
Chain of Genome polyprotein (P29990 2492-3391 limits assumed): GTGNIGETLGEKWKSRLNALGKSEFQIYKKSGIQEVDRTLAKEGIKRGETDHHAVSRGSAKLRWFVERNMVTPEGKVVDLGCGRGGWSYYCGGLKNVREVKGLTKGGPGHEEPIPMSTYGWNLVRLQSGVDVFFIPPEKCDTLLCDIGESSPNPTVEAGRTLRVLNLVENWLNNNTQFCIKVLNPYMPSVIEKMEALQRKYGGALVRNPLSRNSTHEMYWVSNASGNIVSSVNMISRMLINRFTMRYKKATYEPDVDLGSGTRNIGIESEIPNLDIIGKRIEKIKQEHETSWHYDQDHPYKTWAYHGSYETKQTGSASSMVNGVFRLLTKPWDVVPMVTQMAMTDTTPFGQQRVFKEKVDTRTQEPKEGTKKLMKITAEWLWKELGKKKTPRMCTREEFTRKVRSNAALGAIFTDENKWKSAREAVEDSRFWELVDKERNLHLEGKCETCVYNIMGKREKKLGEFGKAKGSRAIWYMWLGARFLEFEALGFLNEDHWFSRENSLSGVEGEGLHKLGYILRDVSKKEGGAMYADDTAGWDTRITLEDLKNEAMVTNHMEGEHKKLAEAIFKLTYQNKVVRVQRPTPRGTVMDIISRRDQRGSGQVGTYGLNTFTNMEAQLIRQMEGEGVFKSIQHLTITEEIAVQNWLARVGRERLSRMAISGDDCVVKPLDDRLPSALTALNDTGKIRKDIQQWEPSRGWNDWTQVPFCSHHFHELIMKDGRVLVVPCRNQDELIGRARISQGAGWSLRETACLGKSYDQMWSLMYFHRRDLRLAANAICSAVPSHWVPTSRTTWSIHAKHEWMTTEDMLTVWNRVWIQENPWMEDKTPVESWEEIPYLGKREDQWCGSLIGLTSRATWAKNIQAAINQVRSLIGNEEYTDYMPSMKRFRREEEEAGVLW
Chain of Protein Tat (P04608 whole entry): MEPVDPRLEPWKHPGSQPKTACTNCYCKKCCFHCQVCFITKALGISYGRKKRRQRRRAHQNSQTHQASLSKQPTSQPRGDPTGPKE

Turning to `Cc1c(-c2nc(-c3ccc(C(F)(F)F)cc3)no2)n(C)oc1=O`, in [1], the IC50 is 1.6 µM (active).
Turning to `COC(=O)C1=C(C(=O)OC)SC(=C2C(=S)C(C)(C)N(C(=O)CC(C)C)c3ccccc32)S1`, the CC50 with Vero is 49.5 µM (active).
For `COc1cc(CN2C[C@@H]3N[C@H](C2)[C@@H]3c2ccc(-c3ccc(C#N)cc3)cc2)cc(OC)c1`, the AC50 in experiment [2] is 3.05 µM (active); in [3] it was 10.5 µM (active).
As to `CCOC(=O)c1cc(OC(=O)c2ccccc2OC)n(-c2ccccc2)n1`, the IC50 in experiment [4] was > 69.5 µM (inactive); in experiment [5], > 69.5 µM (inactive); on Ephrin type-A receptor 4 it was 19.7 µM (active).
Turning to `O=C(O)C(=O)/C(=C\c1ccsc1)c1ccc2ccccc2n1`, the EC50 in experiment [6] was > 67.6 µM (inactive); in [7], 49 µM (active); in [9] it was 27.9 µM (active). Also, the IC50 in experiment [8] was > 67.6 µM (inactive).
Take `CO[C@H]1CN(C)C(=O)c2ccc(NC(=O)c3ccc(Oc4ccccc4)cc3)cc2OC[C@H](C)NC[C@H]1C`: the AC50 in [2] is 6.48 µM (active); in experiment [3], 11.7 µM (active).
As for `O=C(O)c1ccc(-n2nc(C(F)(F)F)c3c2-c2ccoc2CC3)cc1`, the figures for the IC50 on Genome polyprotein and on Protein Tat were 89 µM (active) and > 100 µM (active), respectively.
With `Cc1ccc(CNC(=O)CCS(=O)(=O)c2ccc(Br)cc2)cc1`, the IC50 in [10] was 59.1 µM (active).
Take `CC(C)C1Cc2c(C#N)c(N)sc(=S)c2CO1` (configuration not stated): the IC50 on Ephrin type-A receptor 4 was 3.31 µM (active).

Broadly, the IC50 is the concentration that inhibits the measured activity by half. For orientation: CC50 means the concentration that lowers cell viability or growth by half. Broadly, the AC50 is the midpoint of the concentration-response curve, whichever way the signal moves.
